{"source": "patent US20220331348A1", "about": "“METHOD OF PREPARING PENTACYCLIC TRITERPENOID SAPONINS AND DRUG COMPOSITION” (CHINA PHARMACEUTICAL UNIVERSITY, priority 2019, published 2022)", "key": {"AMPK in Huh-7 cells": {"system": "AMPK in Huh-7 cells", "experiment": "Activation activity on AMPK in Huh-7 cells (Western Blot)", "format": "cell-based", "details": "12 h, relative to DMSO = 1", "description": "The activation activity of a compound on AMPK in Huh-7 cells was detected by using Western Blot.\nCell culture conditions: Huh-7 cells were cultured in an incubator with 5% CO2 at 37° C. in DMEM complete medium (containing 10% fetal calf serum and 1% streptomycin/penicillin).\nAntibody: anti-AMPK (CST, 2532S); anti-pAMPK (CST, 2535S).\nWestern Blot experiment: the influence of the compound on phosphorylation level of the AMPK in the Huh-7 cells was detected: cells with more than 90% cells alive were taken for the experiment. In a 12-well plate, the Huh-7 cells were plated in the plate at 250000 cells per well, the plate was placed in the incubator with 5% CO2 at 37° C. for culture, an original culture medium was discarded after 12 h, a complete medium containing the pentacyclic triterpenoid saponin was added, a final concentration of subject pentacyclic triterpenoid saponin was set to be 10 μM, and an administration time was set to be 12 h. A positive control compound employs AICAR (100 μM), metformin (70 μM) or A-769662 (100 μM). Then proteins were extracted for Western Blot detection.\nExperimental result: a Western Blot experimental result was subjected to gray scale scanning, a p-AMPK/AMPK ratio of negative control DMSO was defined as 1, and a p-AMPK/AMPK ratio of the subject compound was a relative ratio of a negative control group. The larger the numerical value was, the stronger the activation activity of the AMPK of the compound was."}, "[1]": {"system": "ulcerative colitis model mice induced by DSS", "experiment": "Dextran sulphate sodium salt (DSS) induced ulcerative colitis model mice", "format": "in vivo, mouse", "details": "DSS-induced mice; dose not given; vs model group", "description": "C57BL/6 male mice with 6-8 weeks old were selected; a control group was fed with purified water; and a model group, a treatment group and a positive control group were fed with purified water containing 2% dextran sulphate sodium salt (DSS) (36000-50000 M.Wt) for 7 days and then with the purified water for 3 days, and drug intervention was conducted at the same time. The mice in the control group and the model group were orally administered with carboxymethyl cellulose sodium as a placebo, the mice in the treatment group were orally administered with the ziyuglycoside II (purchased from Shanghai Boka Chemistry Technology Co., Ltd) (with a dosage of 5 mg/kg), and the mice in the positive control group were orally administered with 5-aminosalicylic acid as a clinical drug (5-ASA, purchased from Shanghai Sangon Biological Engineering Co., Ltd) (with a dosage of 100 mg/kg). In the administration process, weight changes, feces characters and hematochezia conditions of the mice were observed and recorded every day and were scored, and disease activity indexes were calculated (Disease activity index, DAI).\nA scoring rule and a calculation method were as follows: DAT=(weight score+diarrhea score+occult blood score)/3, wherein weight score: 0 (weight gained or unchanged), 1 (weight lost by 1-5%), 2 (weight lost by 6-10%), 3 (weight lost by 11-15%), 4 (weight lost by 15% or above); diarrhea score: 0 (normal feces), 2 (soft feces), 4 (feces sticking anuses or diarrhea); and occult blood score: 0 (negative occult blood), 2 (positive occult blood), and 4 (visible bleeding). Comparing differences in DAI of various groups, it can be known that the ziyuglycoside II has significant prevention and treatment effects on ulcerative colitis of the mice modeled by the dextran sulphate sodium salt (DSS).\nThe above mice were sacrificed by cervical dislocation at day 11, colon tissues were harvested, lengths of the colon tissues were measured for statistical summary, and differences in colon length of various groups were compared, from which, the ziyuglycoside II has significant prevention and treatment effect on the ulcerative colitis model mice.\nMiddle segments, with lengths of about 1 cm, of the colon tissues of the above mice were selected, soaked in a formalin solution for fixing overnight, embedded with paraffin and sliced, and the slices were subjected to HE staining. […] Particularly, compared with the positive drug group, the ziyuglycoside II has the advantage of maintaining a thickness of a muscular layer.\n10 mg of proximal rectum segments of the colon tissues of the above mice were selected, PBS was added for homogenization, and centrifugation was conducted for taking a supernate. The supernate was subjected to ELISA detection, and protein quantification was conducted for inflammatory factors TNF-α and IL-lb.\n10 mg of colon tissues of the above mice were selected for detection of ROS therein.\nWhen the ulcerative colitis occurs, the inflammatory factors may destruct tight junction between intestinal tracts, and destruction of the tight junction enables functions of mucosal barriers to be lost and accelerates development of the diseases. 5 mg of colon tissues of the above mice were selected for qPCR analysis. […] This hints that the ziyuglycoside II further has the efficacy of increasing the expression level of the tight junction and then protecting a structure of each colon. […] Therefore, the ziyuglycoside II is expected to be useful for preparing the drug for preventing or treating the inflammatory bowel diseases such as the ulcerative colitis."}, "[2]": {"system": "TNBS modeled Crohn's disease model mice", "experiment": "2,4,6-trinitrobenzene sulfonic acid (TNBS) modeled Crohn's disease model mice", "format": "in vivo, mouse", "details": "dose not given", "description": "C57BL/6 male mice with 6-8 weeks old were selected and randomly divided into a control group, a mode group, a treatment group and a positive control group. Expect for the control group, after the mice in the rest groups anesthetized with isoflurane, hoses were carefully inserted into colons of the mice from anuses, and […] of 1.5% 2,4,6-trinitrobenzene sulfonic acid (TNBS) was slowly injected. Before the hoses were pulled out, the mice were placed upside down for 1 min. First intragastric administration was conducted at the day of enema treatment, the mice in the control group and the model group were orally administered with carboxymethyl cellulose sodium as a placebo, the mice in the treatment group were orally administered with the ziyuglycoside II (purchased from Shanghai Boka Chemistry Technology Co., Ltd) (with a dosage of 5 mg/kg), and the mice in the positive drug group were orally administered with 5-aminosalicylic acid as a clinical drug (5-ASA, purchased from Shanghai Sangon Biological Engineering Co., Ltd) (with a dosage of 100 mg/kg). Administration was continuously conducted for 7 days. In the administration process, the states of the mice were observed every day, and weight changes of the mice were recorded.\nDifferences in weight change of the mice in various groups were compared, from which, ziyuglycoside II has the treatment effect on the 2, 4, 6-trinitrobenzene sulfonic acid (TNBS) modeled Crohn's disease model mice.\nThe above mice were sacrificed by cervical dislocation at day 8, colon tissues were harvested, lengths of the colon tissues were measured for statistical summary, and differences in colon length of various groups were compared, from which, the ziyuglycoside II has significant treatment effect on the Crohn's disease model mice. […] 10 mg of proximal rectum segments of the colon tissues of the above mice were selected, PBS was added for homogenization, and centrifugation was conducted for taking a supernate. The supernate was subjected to ELISA detection, and protein quantification was conducted for inflammatory factors TNF- and IL-1. […] Myeloperoxidase (MPO) is an enzyme specific to neutrophils, and the amount of the neutrophils in the intestinal tracts may be reflected by detecting the MPO level. 5 mg of proximal rectum segments of the colon tissues of the above mice were selected, PBS was added for homogenization, and the content of the MPO in a homogenate was detected with a MPO kit (purchased from Nanjing Jiancheng Bioengineering Institute). […] Therefore, the ziyuglycoside II is expected to be useful for preparing the drug for preventing or treating the inflammatory bowel diseases such as the Crohn's disease."}}}
{"compound": "CC1(C)CC[C@]2(C(=O)O)CC[C@]3(C)C(=CCC4[C@@]5(C)CC[C@H](O[C@@H]6O[C@H](C(=O)O)[C@@H](O)[C@H](O)[C@H]6O)C(C)(C)[C@@H]5CC[C@]43C)[C@@H]2C1", "note": "(stereo partly shown) [(III), calunduloside E]", "values": [{"measurement": "pAMPK/AMPK ratio", "setting": "AMPK in Huh-7 cells; 10 μM, Western Blot gray scale", "value": 1.54}]}
{"compound": "CC1(C)CC[C@]2(C(=O)O)CC[C@]3(C)C(=CC[C@@H]4[C@@]5(C)CC[C@H](O[C@@H]6O[C@H](C(=O)O)[C@@H](O)[C@H](O[C@@H]7OC[C@@H](O)[C@H](O)[C@H]7O)[C@H]6O)C(C)(C)[C@@H]5CC[C@]43C)[C@@H]2C1", "note": "[(IV), kochioside Ic]", "values": [{"measurement": "pAMPK/AMPK ratio", "setting": "AMPK in Huh-7 cells; 10 μM, Western Blot gray scale", "value": 1.75}]}
{"compound": "CC1(C)CC[C@]2(C(=O)O)CC[C@]3(C)C(=CCC4[C@@]5(C)CC[C@H](O[C@@H]6OC[C@H](O)[C@H](O)[C@H]6O)C(C)(C)[C@@H]5CC[C@]43C)[C@@H]2C1", "note": "(stereo partly shown) [(XIV), asperosaponin C]", "values": [{"measurement": "pAMPK/AMPK ratio", "setting": "AMPK in Huh-7 cells; 10 μM, Western Blot gray scale", "value": 2.23}]}
{"compound": "C[C@@H]1OC(O[C@H]2[C@H](O[C@H]3CC[C@]4(C)[C@H]5CC=C6[C@@H]7CC(C)(C)CC[C@]7(C(=O)O)CC[C@@]6(C)[C@]5(C)CC[C@H]4C3(C)C)OC[C@H](O)[C@@H]2O)[C@H](O)[C@H](O)[C@H]1O", "note": "(stereo partly drawn) [(XV), β-hederin]", "values": [{"measurement": "pAMPK/AMPK ratio", "setting": "AMPK in Huh-7 cells; 10 μM, Western Blot gray scale", "value": 2.87}]}
{"compound": "CC1(C)CC[C@]2(C(=O)O)CC[C@]3(C)C(=CC[C@@H]4[C@@]5(C)CC[C@H](O[C@@H]6O[C@H](CO)[C@@H](O)[C@H](O)[C@H]6O)C(C)(C)C5CC[C@]43C)[C@H]2C1", "note": "(stereo partly shown) [(XVI), hederin A2]", "values": [{"measurement": "pAMPK/AMPK ratio", "setting": "AMPK in Huh-7 cells; 10 μM, Western Blot gray scale", "value": 2.05}]}
{"compound": "NC(=O)c1ncn([C@@H]2O[C@H](CO)[C@@H](O)[C@H]2O)c1N", "note": "[AICAR, reference compound]", "values": [{"measurement": "pAMPK/AMPK ratio", "setting": "AMPK in Huh-7 cells; positive control 100 μM", "value": 1.47}]}
{"compound": "N#Cc1c(O)c2c(-c3ccc(-c4ccccc4O)cc3)csc2[nH]c1=O", "note": "[Compound A-769662, A-769662, reference compound]", "values": [{"measurement": "pAMPK/AMPK ratio", "setting": "AMPK in Huh-7 cells; positive control 100 μM", "value": 2.59}]}
{"compound": "CN(C)C(=N)N=C(N)N", "note": "[Metformin, reference compound]", "values": [{"measurement": "pAMPK/AMPK ratio", "setting": "AMPK in Huh-7 cells; positive control 70 μM", "value": 1.22}]}
{"compound": "reinioside C [(IX)]", "values": [{"measurement": "DAI scores of the treatment group", "setting": "[1]", "value": "obviously lower than those of the model group"}, {"measurement": "colon length of the treatment group compared with the control group", "setting": "[2]", "value": "nearly no difference"}, {"measurement": "expression level of inflammatory factor IL-1β", "setting": "[2]; vs model group", "value": "significantly lower than those of the model group"}, {"measurement": "expression level of inflammatory factor TNF-α", "setting": "[2]; vs model group", "value": "significantly lower than those of the model group"}, {"measurement": "pAMPK/AMPK ratio", "setting": "AMPK in Huh-7 cells; 10 μM, Western Blot gray scale", "value": 1.88}]}
